19 compounds from patent US20240158393A1, “PYRIDONE COMPOUNDS AND METHODS OF USE” (Exelixis, Inc., priority 2021, published 2024) can be followed below.

The target in the assay is T1, Human Axl (Homo sapiens, UniProt P30530).
T1 construct: Human AXL (residues 464-885)
T1 sequence (P30530 1-894 Q764R): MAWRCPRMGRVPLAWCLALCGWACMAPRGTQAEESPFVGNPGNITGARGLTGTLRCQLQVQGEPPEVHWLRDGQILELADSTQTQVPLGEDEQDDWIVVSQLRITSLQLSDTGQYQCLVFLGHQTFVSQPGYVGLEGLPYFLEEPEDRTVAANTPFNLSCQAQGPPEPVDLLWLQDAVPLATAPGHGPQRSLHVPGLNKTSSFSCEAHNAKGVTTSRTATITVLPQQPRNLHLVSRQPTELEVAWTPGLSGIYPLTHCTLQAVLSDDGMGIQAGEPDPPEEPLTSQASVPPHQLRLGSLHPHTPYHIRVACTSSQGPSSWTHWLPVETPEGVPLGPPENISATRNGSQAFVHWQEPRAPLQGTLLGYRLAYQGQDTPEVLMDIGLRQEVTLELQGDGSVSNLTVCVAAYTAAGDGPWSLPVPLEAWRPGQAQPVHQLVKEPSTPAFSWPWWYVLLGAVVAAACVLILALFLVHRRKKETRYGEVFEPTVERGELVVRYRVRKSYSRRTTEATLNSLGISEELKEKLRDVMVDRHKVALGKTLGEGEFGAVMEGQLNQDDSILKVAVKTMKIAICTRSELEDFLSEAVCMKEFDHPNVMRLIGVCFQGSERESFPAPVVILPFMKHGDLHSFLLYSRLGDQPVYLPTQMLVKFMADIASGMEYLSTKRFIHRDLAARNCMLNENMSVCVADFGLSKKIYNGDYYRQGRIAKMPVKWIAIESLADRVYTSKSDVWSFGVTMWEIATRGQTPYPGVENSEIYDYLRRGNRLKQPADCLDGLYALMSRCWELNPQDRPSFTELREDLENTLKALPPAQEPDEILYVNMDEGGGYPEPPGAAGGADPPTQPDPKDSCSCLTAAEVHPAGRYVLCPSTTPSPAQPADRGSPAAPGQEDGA
Description: Human AXL kinase assay (33P radiometric / HTRF KinEase). Particulars: protocols of Examples A-1 and/or A-2. The assay is classed as biochemical. On the procedure: Kinase activity and compound inhibition were investigated using the ^33P-Phosphoryl transfer radiometric kinase assay, performed using the KinaseProfiler™ service of Eurofins Pharma Discovery Services UK Limited. Dose-response experiments were performed using nine compound concentrations in a 96-well microtiter plate. For each assay, all compounds were prepared to a 50× final assay concentration (50 μM) in 100% DMSO, then diluted in a half-log series, with the final top concentration at 1 μM. This working stock of the compound was added to the assay well as the first component in the reaction, followed by the remaining components as detailed in the following assay protocols below. The positive control wells (100% kinase activity) contain all components of the reaction including 2% DMSO (control for solvent effects), except the compound of interest. Blank wells contain all components of the reaction, with the reference inhibitor, staurosporine. This reference compound was used to abolish kinase activity and generated the 0% kinase activity base-line. IC50 values were calculated by nonlinear regression analysis using the sigmoidal dose-response (variable slope) curve fit on XLFit version 5.3 (ID Business Solutions).
Kinase activity and compound inhibition were also investigated using the HTRF® KinEase assay (Cisbio Cat #62TKOPEB) per manufacturer's instructions. In short, compounds were delivered in 300 nL volumes at 10 different concentrations in DMSO (3% final) to empty 384-well assay plates (Corning cat #3824). A mixture of enzyme, 1 μM biotinylated peptide substrate, and buffer in 10 μL volume was added. The assay was started upon the addition of ATP (at Km). The 10 μL reaction was incubated at room temperature. The reaction was stopped upon the addition of detection buffer containing streptavidin-XL665 (5 μL) and TK antibody-Eu3+(5 μL). After a 60 min incubation at room temperature, the fluorescence at 665 nm and 620 nm was read on an Envision microplate reader (Perkin Elmer).
Kinase activity normalized to DMSO (100% activity) and reference compound at 1 μM and (0% activity) was calculated using the fluorescence ratio […]. IC50 values were calculated by nonlinear regression analysis using a 4-parameter logistic curve fit in ActivityBase XE (IDBS).
Example A-1: Human Axl (residues H473-A894 with Q764R, 161 nM) was incubated with 8 mM MOPS pH 7.0, 0.2 mM EDTA, 250 μM KKSRGDYMTMQIG (SEQ ID NO:1), 10 mM magnesium acetate and 10 μM [γ-^33P-ATP]. The reaction was initiated by the addition of the Mg/ATP mix. After incubation for 40 minutes at room temperature, the reaction was stopped by the addition of phosphoric acid to a concentration of 0.5%. A reaction aliquot of 10 μL was then spotted onto a P30 filtermat and washed four times for 4 minutes in 0.425% phosphoric acid and once in methanol prior to drying and scintillation counting. Incorporated ^33P was measured using the Wallac Microbeta scintillation counter (Perkin Elmer).
Example A-2: Human AXL (residues 464-885; CarnaBio, 1 ng/well) was also incubated with enzymatic buffer (Cisbio) supplemented with 5 mM MgCl2, 1 mM DTT, and Supplemental Enzymatic Buffer (SEB; Cisbio). The mixture was added to the pre-plated compounds. The reaction was initiated upon addition of ATP at Km (1.0 μM). The reaction was incubated at room temperature for 50 min and stopped upon the addition of SA-XL665 and TK-antibody both diluted in EDTA-containing kinase detection buffer (Cisbio). The kinase activity was calculated as stated above and the IC50 values were reported.
On the technique in general: TR-FRET usually uses a lanthanide donor and a delayed reading to cut background.
A word on the IC50: it is the concentration at which inhibition is half-maximal. Read a low IC50 as higher potency. Consider `COc1cc2nccc(Oc3ccc(NC(=O)c4c(C)cc(C)n(C5CCCC5)c4=O)cc3F)c2nc1OC` [Compound 15, 1-Cyclopentyl-N-[4-[(6,7-dimethoxy-1,5-naphthyridin-4-yl)oxy]-3-fluorophenyl]-4,6-dimethyl-2-oxopyridine-3-carboxamide], for which the IC50 was at most 100 nM.
To `COc1cc2nccc(Oc3ccc(NC(=O)c4cnc(C)c(C5=CCCC5)c4O)cc3)c2cc1OC` [Compound 16, 5-(Cyclopenten-1-yl)-N-[4-(6,7-dimethoxyquinolin-4-yl)oxyphenyl]-4-hydroxy-6-methylpyridine-3-carboxamide] belongs at most 100 nM; to `COc1cc2nccc(Oc3ccc(NC(=O)c4cnc(C)c(C5=CCOCC5)c4O)cc3)c2cc1OC` [Compound 17, 5-(3,6-Dihydro-2H-pyran-4-yl)-N-[4-(6,7-dimethoxyquinolin-4-yl)oxyphenyl]-4-hydroxy-6-methylpyridine-3-carboxamide], at most 100 nM.
For the compound `COc1cc2nccc(Oc3ccc(NC(=O)c4cnc(C)c(C5=CCCC5)c4O)cc3F)c2cc1OC` [Compound 18, 5-(Cyclopenten-1-yl)-N-[4-(6,7-dimethoxyquinolin-4-yl)oxy-3-fluorophenyl]-4-hydroxy-6-methylpyridine-3-carboxamide], the IC50 is at most 100 nM.
As for `COc1cc2nccc(Oc3ccc(NC(=O)c4cnc(C)c(C5=CCOCC5)c4O)cc3F)c2cc1OC` [Compound 19, 5-(3,6-Dihydro-2H-pyran-4-yl)-N-[4-(6,7-dimethoxyquinolin-4-yl)oxy-3-fluorophenyl]-4-hydroxy-6-methylpyridine-3-carboxamide], the figure is at most 100 nM; as for `C=C(C)n1c(C)cc(C)c(C(=O)Nc2ccc(Oc3ccnc4cc(OC)c(OC)nc34)c(F)c2)c1=O` [Compound 20, N-[4-[(6,7-Dimethoxy-1,5-naphthyridin-4-yl)oxy]-3-fluorophenyl]-4,6-dimethyl-2-oxo-1-prop-1-en-2-ylpyridine-3-carboxamide], at most 100 nM; as for `C=C(C)n1c(C)cc(C)c(C(=O)Nc2ccc(Oc3ccnc4cc(OC)cnc34)c(F)c2)c1=O` [Compound 21, N-[3-Fluoro-4-[(7-methoxy-1,5-naphthyridin-4-yl)oxy]phenyl]-4,6-dimethyl-2-oxo-1-prop-1-en-2-ylpyridine-3-carboxamide], above 300 nM.
As for `COc1cc2nccc(Oc3ccc(NC(=O)c4c(C)c(Br)c(C)n(C5CCCC5)c4=O)cc3F)c2nc1OC` [Compound 22, 5-Bromo-1-cyclopentyl-N-[4-[(6,7-dimethoxy-1,5-naphthyridin-4-yl)oxy]-3-fluorophenyl]-4,6-dimethyl-2-oxopyridine-3-carboxamide], the figure is at most 100 nM; as for `COc1cc2nccc(Oc3ccc(NC(=O)c4cnc(C)c(C5=CCCCC5)c4O)cc3F)c2cc1OC` [Compound 23, 5-(Cyclohexen-1-yl)-N-[4-(6,7-dimethoxyquinolin-4-yl)oxy-3-fluorophenyl]-4-hydroxy-6-methylpyridine-3-carboxamide], at most 100 nM.
`COc1cc2nccc(Oc3ccc(NC(=O)c4cnc(C)c(C5=CCCCC5)c4O)cc3)c2cc1OC` [Compound 24, 5-(Cyclohexen-1-yl)-N-[4-(6,7-dimethoxyquinolin-4-yl)oxyphenyl]-4-hydroxy-6-methylpyridine-3-carboxamide]: the IC50 is at most 100 nM.
For `COc1cc2nccc(Oc3ccc(NC(=O)c4cnc(C)c(/C=C/C5CCCC5)c4O)cc3F)c2nc1OC` [Compound 25, 5-[(E)-2-Cyclopentylethenyl]-N-[4-[(6,7-dimethoxy-1,5-naphthyridin-4-yl)oxy]-3-fluorophenyl]-4-hydroxy-6-methylpyridine-3-carboxamide], the IC50 is at most 100 nM.
`COc1cc2nccc(Oc3ccc(NC(=O)c4cnc(C)c(/C=C/C5CC5)c4O)cc3F)c2nc1OC` [Compound 26, 5-[(E)-2-Cyclopropylethenyl]-N-[4-[(6,7-dimethoxy-1,5-naphthyridin-4-yl)oxy]-3-fluorophenyl]-4-hydroxy-6-methylpyridine-3-carboxamide] showed an IC50 of at most 100 nM.
As for `COc1cc2nccc(Oc3ccc(NC(=O)c4cnc(C)c(/C=C/C(C)(C)C)c4O)cc3F)c2nc1OC` [Compound 27, N-[4-[(6,7-Dimethoxy-1,5-naphthyridin-4-yl)oxy]-3-fluorophenyl]-5-[(E)-3,3-dimethylbut-1-enyl]-4-hydroxy-6-methylpyridine-3-carboxamide], the IC50 was at most 100 nM.
With `COc1cc2nccc(Oc3ccc(NC(=O)c4cnc(C)c(/C=C/CC(C)C)c4O)cc3F)c2nc1OC` [Compound 28, N-[4-[(6,7-Dimethoxy-1,5-naphthyridin-4-yl)oxy]-3-fluorophenyl]-4-hydroxy-6-methyl-5-[(E)-4-methylpent-1-enyl]pyridine-3-carboxamide], the IC50 is at most 100 nM.
In turn, `COc1cc2nccc(Oc3ccc(NC(=O)c4cnc(C)c(/C=C/CC(C)C)c4O)cc3F)c2cc1OC` [Compound 29, N-[4-(6,7-Dimethoxyquinolin-4-yl)oxy-3-fluorophenyl]-4-hydroxy-6-methyl-5-[(E)-4-methylpent-1-enyl]pyridine-3-carboxamide] displayed an IC50 of at most 100 nM.
Consider `COc1cc2nccc(Oc3ccc(NC(=O)c4cnc(C)c(/C=C/C(C)(C)C)c4O)cc3F)c2cc1OC` [Compound 30, N-[4-(6,7-Dimethoxyquinolin-4-yl)oxy-3-fluorophenyl]-5-[(E)-3,3-dimethylbut-1-enyl]-4-hydroxy-6-methylpyridine-3-carboxamide], for which the IC50 was at most 100 nM.
Regarding `COc1cc2nccc(Oc3ccc(NC(=O)c4c(C)nc(C)c(C(C)C)c4O)cc3F)c2nc1OC` [Compound 31, N-[4-[(6,7-Dimethoxy-1,5-naphthyridin-4-yl)oxy]-3-fluorophenyl]-4-hydroxy-2,6-dimethyl-5-propan-2-ylpyridine-3-carboxamide], the IC50 was at most 100 nM.
Compound `COc1cnc2c(Oc3ccc(NC(=O)c4c(C)nc(C)c(C(C)C)c4O)cc3F)ccnc2c1` [Compound 32, N-[3-Fluoro-4-[(7-methoxy-1,5-naphthyridin-4-yl)oxy]phenyl]-4-hydroxy-2,6-dimethyl-5-propan-2-ylpyridine-3-carboxamide] had an IC50 of at most 100 nM.
As for `COCCOc1cc2nccc(Oc3ccc(NC(=O)c4cnc(C)c(C5=CCCC5)c4O)cc3F)c2nc1OC` [Compound 33, 5-(Cyclopenten-1-yl)-N-[3-fluoro-4-[[6-methoxy-7-(2-methoxyethoxy)-1,5-naphthyridin-4-yl]oxy]phenyl]-4-hydroxy-6-methylpyridine-3-carboxamide], the figure is at most 100 nM.
